Here are results for three substances from publication PMC6081452, “Downstream Products are Potent Inhibitors of the Heparan Sulfate 2-O-Sulfotransferase” (Scientific Reports, 2018).

A word on the IC50: it is the point on the concentration scale where inhibition reaches its midpoint. Low values mean greater potency, high ones weaker potency.

The target of this experiment is T1, non-glyc-HS2ST WT (Gallus gallus, UniProt Q76KB1).
T1 construct: made in house; host or cells: E. coli Origami B (DE3)
T1 sequence (Q76KB1 69-356 limits assumed): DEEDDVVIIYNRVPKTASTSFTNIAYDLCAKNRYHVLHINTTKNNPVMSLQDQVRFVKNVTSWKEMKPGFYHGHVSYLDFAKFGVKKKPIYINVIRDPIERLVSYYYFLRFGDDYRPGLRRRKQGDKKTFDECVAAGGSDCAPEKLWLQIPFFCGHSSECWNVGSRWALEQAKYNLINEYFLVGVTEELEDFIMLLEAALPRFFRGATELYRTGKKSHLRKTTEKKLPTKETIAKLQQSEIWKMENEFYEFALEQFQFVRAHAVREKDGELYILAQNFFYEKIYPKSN
Kind of experiment: Inhibition assay of the reaction between HS2ST and completely de-O-sulfated N-sulfated heparin ([35S]PAPS). It counts as biochemical, chicken. Conditions: for IC50: p-nitrophenol-terminated hexasaccharides, substrate CDNS heparin 1 µg, [35S]PAPS, 37 °C, 1 h, n = 2 or 3. The method, then: Inhibition assays were thus performed with non-glyc-HS2ST and all compounds except for 1, the enzymatic substrate. […] Compound 5 appeared to inhibit at least as well as the product of the reaction (2); however, the IC50 was not reached even at the maximum substrate concentration (1 mM) for either 2 or 5. The addition of a single sulfate moiety enhanced the potency of the glycan as an inhibitor by ~10-fold (compare 3 and 4). The presence of both 2- and 3-O-sulfate moieties in the hexasaccharide (4) enhanced its inhibitory potential by approximately 100-fold relative to 5. These in vitro inhibition assays indicate that downstream products of the HS biosynthetic pathway could interfere with HS2ST catalysis in vivo.
The same glycan sequences were synthesized[62] for the inhibition assay as were used for the binding studies (Supplementary Table 1), except these terminated in p-nitrophenol rather than the PEG4-Biotin linker. The reaction mixture contained Tris pH 7.5 50 mM, 0.3 µg non-glyc-HS2ST WT, 0.08 nmol ^35S-labeled 3′-phosphoadenosine 5′-phosphosulfate ([^35S] PAPS) (3 × 10^4 cpm), completely de-O-sulfated N-sulfated heparin (CDNS heparin) 1 µg, and either compound 2, 3, 4 (0, 1, 2, 4, 8, and 16 µg) or 5 (2, 20, 60, and 160 µg) in a total volume of 0.1 ml. After incubation at 37 °C for 1 h, the reaction was quenched by adding 1 mL of 0.01% Triton X-100 buffer at pH 5.0 containing 150 mM NaCl, 50 mM NaOAc, 3 M urea and 1 mM ethylenediaminetetraacetic acid (EDTA). The samples were loaded on a small DEAE column (200 µl in size). The column was then washed five times with the same buffer, each time 1 ml. The column was further washed five times with 0.25 M NaCl in 0.001% Triton X-100 buffer each time 1 ml. The column was eluted with 1 ml of 1 M NaCl in 0.001% Triton X-100 buffer. The ^35S cpm of the eluted samples were tested the by a scintillation counter.

Substance “GlcNS6S-GlcA-GlcNS6S-GlcA-GlcNS6S-GlcA~ [Compound 5]” had an IC50 of over 1000 µM.

Regarding “GlcNS6S-GlcA-GlcNS3S6S-IdoA2S-GlcNS6S-GlcA~ [Compound 4]”, the “Enhancement of inhibitory potential relative to 5” value (4 relative to 5) is recorded as “approximately 100 fold”. Also, for the setting “4 versus 3”, the “Enhancement of inhibitory potency by addition of a single sulfate moiety (compare 3 and 4)” value is ~ 10 fold.

“GlcNS-GlcA-GlcNS-IdoA2S-GlcNS-GlcA~ [Compound 2]” returned an IC50 of over 1000 µM.
